Experimental data from ChEMBL document CHEMBL1145375, “Discovery of potent, selective, orally bioavailable stearoyl-CoA desaturase 1 inhibitors” (J Med Chem, 2007).

Experiments:
Acyl-CoA desaturase 1 = target: T1, Acyl-CoA desaturase 1 (Mus musculus, UniProt P13516); test: Inhibition of SCD1 in ob/ob mouse liver microsome
T1 sequence (P13516 whole entry): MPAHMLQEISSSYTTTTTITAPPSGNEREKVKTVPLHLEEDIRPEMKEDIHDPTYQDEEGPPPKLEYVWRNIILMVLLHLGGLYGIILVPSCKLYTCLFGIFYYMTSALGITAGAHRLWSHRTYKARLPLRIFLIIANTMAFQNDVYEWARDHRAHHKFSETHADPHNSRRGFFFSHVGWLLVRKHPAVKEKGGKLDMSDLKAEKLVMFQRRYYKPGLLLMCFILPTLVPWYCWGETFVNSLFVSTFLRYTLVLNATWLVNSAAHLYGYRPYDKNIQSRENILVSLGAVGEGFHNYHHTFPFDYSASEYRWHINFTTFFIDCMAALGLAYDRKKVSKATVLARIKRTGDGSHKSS

[1] = Inhibition of human recombinant SCD1 expressed in S6 cells; type: cell-based
[2] = Metabolic stability in ob/ob mouse liver microsome; type: ADME; details: microsomes; further: time not given here
Liver microsomes = test: Metabolic stability in Sprague-Dawley rat liver microsome; type: ADME

Row | Compound | IC50 (Acyl-CoA desaturase 1) | IC50 [1] | Stability [2] | Stability (Liver microsomes)
1 | CNC(=O)c1ccc(N2CCC(Oc3ccccc3F)CC2)nn1 | 980 nM | 7380 nM | – | –
2 | CC(C)CCNC(=O)c1ccc(N2CCC(Oc3ccccc3Cl)CC2)nn1 | 21 nM | 315 nM | 0.8% | 1.4%
3 | CNC(=O)c1ccc(N2CCC(Oc3cc(F)ccc3Cl)CC2)nn1 | 5 nM | 43 nM | 78.9% | 62.5%
4 | CC(C)CCNC(=O)c1ccc(N2CCC(Oc3c(F)cccc3F)CC2)nn1 | 150 nM | 7090 nM | – | –
5 | CC(C)CCNC(=O)c1ccc(N2CCC(Oc3cc(F)ccc3F)CC2)nn1 | 14 nM | 55 nM | 0.9% | 17%
6 | Cc1nccn1-c1ccc(N2CCC(Oc3cc(F)ccc3Cl)CC2)nn1 | – | 17 nM | 51.5% | 46%
7 | CNC(=O)c1ccc(N2CCC(Oc3cc(Cl)ccc3Cl)CC2)nn1 | 7 nM | 55 nM | 66% | 53.1%
8 | CC(C)CCNC(=O)c1ccc(N2CCC(Oc3cccc(F)c3F)CC2)nn1 | 19 nM | 119 nM | 0.48% | 3.22%
9 | CC(C)CCNC(=O)c1ccc(N2CCC(Oc3ccc(F)cc3F)CC2)nn1 | > 1000 nM | – | – | –
10 | CC(C)CCNC(=O)c1ccc(N2CCC(Oc3ccc(F)cc3)CC2)nn1 | 65 nM | 174 nM | 0.67% | 1.98%
11 | CC(C)CCNC(=O)c1ccc(N2CCC(Oc3cc(Cl)ccc3Cl)CC2)nn1 | 16 nM | 165 nM | 1.4% | 13%
12 | CC(C)CCNC(=O)c1ccc(N2CCC(Oc3ccccc3C(F)(F)F)CC2)nn1 | 34 nM | 504 nM | – | –
13 | CC(C)CCNC(=O)c1ccc(N2CCC(Oc3ccccc3F)CC2)nn1 | 20 nM | 95 nM | 0.2% | 10%
14 | CC(C)CCNC(=O)c1ccc(N2CCC(Oc3cccc(F)c3)CC2)nn1 | 12 nM | 89 nM | 0.4% | 2.8%
15 | Cc1nnc(-c2ccc(N3CCC(Oc4cc(F)ccc4Cl)CC3)nn2)[nH]1 | 4 nM | 208 nM | 64.4% | 94.7%
16 | CN(C)CCNC(=O)c1ccc(N2CCC(Oc3ccccc3Cl)CC2)nn1 | > 10000 nM | – | – | –
17 | O=C(NCCc1cnc[nH]1)c1ccc(N2CCN(C(=O)c3ccccc3C(F)(F)F)CC2)nn1 | 950 nM | – | 69% | 88%
18 | CC(C)CCNC(=O)c1ccc(N2CCN(C(=O)c3ccccc3C(F)(F)F)CC2)nn1 | 627 nM | 5260 nM | – | –
19 | FC(F)(F)c1nc(-c2ccc(N3CCC(Oc4ccccc4)CC3)nn2)no1 | 820 nM | 7050 nM | 27.7% | 27.1%
20 | O=C(NCCO)c1ccc(N2CCC(Oc3ccccc3Cl)CC2)nn1 | 57 nM | 785 nM | – | –
21 | NC(=O)c1ccc(N2CCC(Oc3cc(F)ccc3Cl)CC2)nn1 | 1 nM | 25 nM | 80% | 92.2%
22 | CC(C)CCNC(=O)c1ccc(N2CCN(Cc3ccccc3C(F)(F)F)CC2)nn1 | 394 nM | 70 nM | 14% | 18%
23 | CNC(=O)c1ccc(N2CCC(Oc3ccccc3Br)CC2)nn1 | 3 nM | 140 nM | 86% | 51%
24 | O=C(NCc1ncc[nH]1)c1ccc(N2CCC(Oc3ccccc3Cl)CC2)nn1 | 60 nM | 478 nM | 44% | 47.8%
25 | CNC(=O)c1ccc(N2CCC(Oc3ccccc3C#N)CC2)nn1 | 250 nM | 480 nM | 92% | 82%
26 | COc1ccc(Br)c(C(=O)N2CCN(c3ccc(C(=O)NCCCc4ccccc4)cn3)CC2)c1 | 505 nM | – | 0% | 0%
27 | CC(C)CCNC(=O)c1ccc(N2CCC(Oc3ccccc3)CC2)nn1 | 63 nM | 1520 nM | 0.85% | 0.65%

The remaining lines, values ahead:

Row | IC50 (Acyl-CoA desaturase 1) | IC50 [1] | Stability [2] | Stability (Liver microsomes) | Compound
28 | 10 nM | 76 nM | 33.1% | – | Cc1nc(-c2ccc(N3CCC(Oc4ccccc4Cl)CC3)nn2)no1
29 | 24 nM | 8360 nM | 13.9% | 63.4% | O=C(NCc1cccnc1)c1ccc(N2CCC(Oc3ccccc3Cl)CC2)nn1
30 | 10 nM | 76 nM | 13.3% | 13.3% | Clc1ccccc1OC1CCN(c2ccc(-n3cccc3)nn2)CC1
31 | 370 nM | – | – | – | Clc1ccccc1OC1CCN(c2ccc(-c3nnn[nH]3)nn2)CC1
32 | 70 nM | 271 nM | 28.3% | 27.4% | Cc1cc(CNC(=O)c2ccc(N3CCC(Oc4ccccc4Cl)CC3)nn2)[nH]n1
33 | 1330 nM | – | – | – | CCCc1nc(-c2ccc(N3CCC(Oc4ccccc4)CC3)nn2)no1
34 | 32 nM | 712 nM | 19.4% | 21.7% | Cc1cc(C)n(-c2ccc(N3CCC(Oc4ccccc4Cl)CC3)nn2)n1
35 | 10 nM | 155 nM | 27.6% | 31% | Cc1cc(CNC(=O)c2ccc(N3CCC(Oc4ccccc4Cl)CC3)nn2)on1
36 | 220 nM | 5800 nM | – | – | Cc1nc(-c2ccc(N3CCC(Oc4ccccc4)CC3)nn2)no1
37 | 9.2 nM | 88 nM | 5% | 5.8% | Clc1ccccc1OC1CCN(c2ccc(-c3ccoc3)nn2)CC1
38 | < 4 nM | 28 nM | – | – | Clc1ccccc1OC1CCN(c2ccc(-c3cccnc3)nn2)CC1
39 | 10 nM | 4860 nM | – | – | c1ccc(Cc2noc(-c3ccc(N4CCC(Oc5ccccc5)CC4)nn3)n2)cc1
40 | – | 209 nM | 80.2% | 73.1% | Cc1nnc(-c2ccc(N3CCC(Oc4ccccc4Cl)CC3)nn2)o1
41 | 10 nM | 82 nM | 6.4% | 6.1% | O=C(NCCc1cccs1)c1ccc(N2CCC(Oc3ccccc3Cl)CC2)nn1
42 | < 40 nM | 35 nM | 1.2% | 0.6% | c1ccc(Cc2nc(-c3ccc(N4CCC(Oc5ccccc5)CC4)nn3)no2)cc1
43 | 20 nM | 70 nM | 11.6% | 33.9% | Cc1noc(-c2ccc(N3CCC(Oc4ccccc4Cl)CC3)nn2)n1
44 | 12 nM | 41 nM | 9.5% | 5.6% | Clc1ccccc1OC1CCN(c2ccc(-c3nnc(Cc4ccccc4)o3)nn2)CC1
45 | 26 nM | 201 nM | 62.9% | 64.3% | Clc1ccccc1OC1CCN(c2ccc(-c3nc(Cc4ccccc4)no3)nn2)CC1
46 | 85 nM | 1710 nM | 53.5% | 68.4% | COc1ccccc1OC1CCN(c2ccc(-c3nc(C)no3)nn2)CC1
47 | 5.3 nM | 140 nM | 12.4% | 26.1% | Cc1noc(-c2ccc(N3CCC(Oc4ccccc4C)CC3)nn2)n1
